Here are results for three molecules from patent US5817776A, “Amino acid analogs for tumor imaging” (priority 1996, dated 1998).

For orientation: tissue uptake means the percentage of the injected dose found per gram of tissue. A high value points to strong accumulation.

One series concerns several tumor types. As to conditions: labeled with carbon-14 or carbon-11, animals, Washburn et al. 1979; cited from earlier work.
Series [1] concerns N-methyl-D-aspartic acid (NMDA) receptor, strychnine-insensitive glycine recognition site. As to conditions: cited from earlier work.
Series [2] concerns metastatic lesions in the brain. Conditions: cited from earlier work.
The next series has as its system normal tissue. Conditions: in vivo; cited from earlier work.
A further series can be described thus: in vivo. As to conditions: rat, in vivo, iv, Mean % Injected Dose/Gram. Here is the method:
(§1) In vivo distribution of a compound of the invention, [^18 F]-1-amino-3-fluoro-cyclobutane-1-carboxylic acid (FACBC) was measured in rats having an implanted gliosarcoma. Accumulation in various tissue was measured at 5 min and 60 min post-administration.
(§2) Distribution of Radioactivity in Tissues of Unfasted Male
(§3) Fisher Rats following Intravenous Administration of [^18 F]FACBC

The test system of another series is implanted gliosarcoma. Kind of series: in vivo. As to conditions: for Bone, Mean % Injected Dose/Gram: unfasted male fisher rats, average of 4 rats. Here is the method:
as §1, §2, §3

In series [3] the test system is human astrocyte tumor cells. The series is described as follows: Binding to human astrocyte tumor cells in a human patient. Format: in vivo.
Setting [4] is: 60 min, intravenous, male fisher rats with implanted gliosarcoma.

In the case of `NC1(C(=O)O)CCC1` [ACBC, 1-aminocyclobutanecarboxylic acid], in the series with several tumor types, the “incorporation by tumors (in words)” value is “incorporated preferentially by several tumor types in animals”. In addition, the “NMDA receptor ligand and antagonist activity (in words)” value in series [1] is “selective and potent ligand and antagonist”. The “substrate for protein synthesis in metastatic lesions; normal brain uptake (in words)” value in series [2] is given as “selective substrate for protein synthesis in metastatic lesions in the brain with little observable uptake in normal brain tissue”.

For `CSCC[C@H](N)C(=O)O` [[^11 C] methionine, methionine], the “uptake in normal tissue (in words)” value in the series with normal tissue is “relatively high uptake in normal tissue”.

With `NC1(C(=O)O)CC([18F])C1` (stereo not shown) [[^18 F]FACBC, [^18 F]-1-amino-3-fluorocyclobutane-1-carboxylic acid], the tissue uptake at 5 min in the series “in vivo” (Blood, 5 min, unfasted male fisher rats, average of 4 rats) was 0.58 %ID/g; in “in vivo” (Bone, 5 min, unfasted male fisher rats, average of 4 rats), 0.52 %ID/g; in “in vivo” (Brain (B)), 0.11 %ID/g; in “in vivo” (Heart), 0.7 %ID/g; in the series “in vivo” (Kidney), 1.08 %ID/g; in the series “in vivo” (Liver) it was 1.1 %ID/g. The tissue uptake at 5 min in the series “in vivo” (Lung) came out at 1.13 %ID/g; in the series “in vivo” (Muscle) it was 0.27 %ID/g; in “in vivo” (Spleen), 1.55 %ID/g; in the series “in vivo” (Testis), 0.25 %ID/g; in the series “in vivo” (Tumor (T), 5 min, male fisher rats with implanted gliosarcoma), 0.61 %ID/g. For the same molecule, the tissue uptake at 1 h in “in vivo” (Blood, 60 min, unfasted male fisher rats, average of 4 rats) was 0.32 %ID/g; in “in vivo” (Bone, 60 min, unfasted male fisher rats, average of 4 rats), 0.38 %ID/g; in “in vivo” (Brain (B)) it was 0.26 %ID/g; in “in vivo” (Heart) it was 0.56 %ID/g; in the series “in vivo” (Kidney), 0.6 %ID/g; in the series “in vivo” (Liver), 1.7 %ID/g. For the same molecule, the tissue uptake at 1 h turned out to be 0.64 %ID/g in the series “in vivo” (Lung); 0.41 %ID/g in the series “in vivo” (Muscle); 0.68 %ID/g in “in vivo” (Spleen); 0.28 %ID/g in “in vivo” (Testis); 1.72 %ID/g in the series “in vivo” (Tumor (T), 60 min, male fisher rats with implanted gliosarcoma). Also, the “T/B (tumor to brain ratio)” value was 5.58 with implanted gliosarcoma (5 min, intravenous, male fisher rats with implanted gliosarcoma); 6.6 in the series with implanted gliosarcoma (setting [4]); 6.61 in the series with implanted gliosarcoma (rat, in vivo, iv). Moreover, the “Bone, Mean % Injected Dose/Gram” value in the series with implanted gliosarcoma (5 min, intravenous) was determined as 0.52 % Injected Dose/Gram; in the series with implanted gliosarcoma (60 min, intravenous) it was 0.38 % Injected Dose/Gram. The “Tumor (T), Mean % Injected Dose/Gram” value in the series on implanted gliosarcoma (setting [4]) was 1.72 % Injected Dose/Gram. In the series on implanted gliosarcoma (rat, in vivo, iv), the “stability to in vivo defluorination (bone uptake)” value is on record as “Uptake by bone was essentially constant over the 60 minutes of exposure, indicating stability of the 2-cyclobutyl group to significant in vivo defluorination”. Moreover, the “tumor uptake / tumor to brain discrimination (in words)” value in the series with implanted gliosarcoma (rat, in vivo, iv) is recorded as “preferentially associated with tumor tissue as early as 5 minutes post administration”. For the same molecule, the “Brain (B), Mean % Injected Dose/Gram” value with implanted gliosarcoma (rat, in vivo, iv, 5 min) is 0.11 % Injected Dose/Gram; with implanted gliosarcoma (rat, in vivo, iv, 1 h), 0.26 % Injected Dose/Gram. In series [3], the “binding to human astrocyte tumor cells (in words)” value was “highly specific binding to human astrocyte tumor cells”.
